Consider one compound from patent US20250313572A1, “MACROCYCLIC MCL-1 INHIBITORS AND METHODS OF USE” (AbbVie Inc., priority 2017, published 2025).

Like-named read-outs stand apart in the source and are kept apart here. Marks after values point to notes of the source that are not given here.

One test deals with AMO-1 xenograft. Briefly: AMO-1 xenograft model of multiple myeloma. It counts as in vivo, female SCID/bg mice. The following applies: 25 mg/kg/day, IP/QDx1. Here is the method:
Tumors were size matched at approximately 200 mm^3. […] Tumor volume was estimated two to three times weekly. […] Seven or eight mice were housed per cage. Food and water were available ad libitum.
Tumor growth inhibition is calculated by 100*(1−Tv/Cv) where Tv and Cv are the mean tumor volumes of the treated and control groups, respectively.

A further test addresses GST-MCL-1 (Homo sapiens, UniProt Q07820). In words: TR-FRET MCL-1 binding assay (competition with probe F-Bak). The gist of the method:
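Test compounds, 11 three-fold dilutions from 25 μM final, incubated 2 hours at room temperature with GST-MCL-1, F-Bak probe and Tb-anti-GST antibody. TR-FRET read at 340/35 nm excitation with 520/525 and 495/510 nm emission. Run without human serum and with 10% HS.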

Test [1] concerns NCI-H929 human multiple myeloma tumor cell line. In words: NCI-H929 cell viability assay (CellTiter-Glo, 24 hours). It counts as cell-based. The following applies: read-out: H929 Viability IC50 (μM, 10% FBS); 10% FBS, 24 hours of compound treatment. (In general: ATP-based viability assays read luminescence as a measure of living cells.)
Test [2] has as its system AMO-1 human multiple myeloma tumor cell line. Briefly: AMO-1 cell viability assay (CellTiter-Glo, 24 hours). It counts as cell-based. The note with it: read-out: AMO-1 Viability IC50 (μM, 10% FBS); 10% FBS, 24 hours of compound treatment.

Sequence of GST-MCL-1 (Q07820 whole entry): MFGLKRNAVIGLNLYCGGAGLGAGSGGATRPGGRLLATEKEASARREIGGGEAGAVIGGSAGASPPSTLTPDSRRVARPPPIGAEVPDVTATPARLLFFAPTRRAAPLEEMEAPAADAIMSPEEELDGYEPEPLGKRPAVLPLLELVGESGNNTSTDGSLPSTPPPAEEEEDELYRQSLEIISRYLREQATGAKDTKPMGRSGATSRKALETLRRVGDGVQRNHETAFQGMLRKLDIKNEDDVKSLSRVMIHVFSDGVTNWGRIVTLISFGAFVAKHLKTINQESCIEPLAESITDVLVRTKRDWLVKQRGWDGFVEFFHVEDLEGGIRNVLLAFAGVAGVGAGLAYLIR

As to `COCCOCCOCC1(F)CC=C(c2nccc(COc3ccc4cc3C[C@H](C(=O)O)Oc3ncnc5sc(-c6ccc(F)cc6)c(c35)-c3c(C)c(Cl)c(c(Cl)c3C)O[C@H](CN3CCN(C)CC3)CO4)n2)CC1` (single isomer, unassigned) [Example 87, (7R,16R)-19,23-dichloro-10-({2-[(4R*)-4-fluoro-4-{[2-(2-methoxyethoxy)ethoxy]methyl}cyclohex-1-en-1-yl]pyrimidin-4-yl}methoxy)-1-(4-fluorophenyl)-20,22-dimethyl-16-[(4-methylpiperazin-1-yl)methyl]-7,8,15,16-tetrahydro-18,21-etheno-13,9-(metheno)-6,14,17-trioxa-2-thia-3,5-diazacyclononadeca[1,2,3-cd]indene-7-carboxylic Acid], the “TGD (%)” value in the test on AMO-1 xenograft is given as 158* %. Further, the “TGImax (%)” value in the test with AMO-1 xenograft is reported as 99* %. For the same compound, the Ki at GST-MCL-1 (MCL-1 Binding Ki (nM, 10% HS), in the presence of 10% HS (human serum)) was determined as 0.068 nM; at GST-MCL-1 (without HS, read-out: MCL-1 Binding Ki), 0.004 nM. Further, the figures for the IC50 in test [1] and in test [2] were 0.000253 µM and 0.0959 nM, respectively.

As a reminder, the Ki is a dissociation constant, usually derived from enzyme kinetics or from competition with a known ligand.
